Patent publication US4921871A, “Enolamides, pharmaceutical compositions and methods of use thereof for treating inflammation” (Warner-Lambert Company, priority 1987, dated 1990)

Target: T1, human leukocyte 5-lipoxygenase (Homo sapiens, UniProt P09917)
T1 construct: endogenous in cells; host or cells: leukocytes from fresh human blood
T1 sequence (P09917 1-674): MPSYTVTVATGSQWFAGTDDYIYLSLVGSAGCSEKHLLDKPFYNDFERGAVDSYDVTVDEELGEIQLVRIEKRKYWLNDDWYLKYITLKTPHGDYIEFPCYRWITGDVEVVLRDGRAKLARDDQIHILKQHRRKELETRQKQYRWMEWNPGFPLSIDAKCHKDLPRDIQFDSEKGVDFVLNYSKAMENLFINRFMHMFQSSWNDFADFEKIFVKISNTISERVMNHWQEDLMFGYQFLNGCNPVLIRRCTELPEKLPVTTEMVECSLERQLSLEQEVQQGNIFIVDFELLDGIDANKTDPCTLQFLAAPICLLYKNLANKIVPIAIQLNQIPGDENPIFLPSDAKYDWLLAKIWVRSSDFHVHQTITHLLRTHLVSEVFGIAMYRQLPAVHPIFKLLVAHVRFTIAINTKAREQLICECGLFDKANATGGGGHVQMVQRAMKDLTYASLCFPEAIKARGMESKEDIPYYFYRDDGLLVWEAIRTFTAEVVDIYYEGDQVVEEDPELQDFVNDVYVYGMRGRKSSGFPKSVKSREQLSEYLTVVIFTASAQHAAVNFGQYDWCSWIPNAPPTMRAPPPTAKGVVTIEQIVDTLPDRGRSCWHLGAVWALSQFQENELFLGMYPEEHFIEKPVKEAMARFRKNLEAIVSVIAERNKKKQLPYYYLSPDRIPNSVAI
Test: 5-Lipoxygenase assay in human leukocytes, formation of 5-HETE (5LOA; 5LOA1 or 5LOA2 not specified)
Assay type: cell-based
Description: To Evaluate the Effect of Each Compounds as a 5-Lipoxygenase Inhibitor in Comparison to Standard Reference Agents in Human Leukocytes (5LOAl)
The purpose of this assay is to evaluate the activity of each compound as an inhibitor of human leukocyte 5-lipoxygenase.
Arachidonic acid and calcium ionophore A23l87 are obtained from Sigma (St. Louis, Mo.). Silica gel plates, GF are obtained from Analtech (Newark, Del.). Arachidonic acid, (1-^14 C) and 5-HETE (^3 H), 5 (S)-hydroxy-6-trans, 8,11,14-cis eicosatetraenoic acid, are obtained from New England Nuclear (Boston, Mass.). Six percent Dextran-70 in 0.9% NaCl is obtained from Cutter Labs (Berkeley, Calif.).
Fresh blood from normal adult men who had not received any drugs for at least the previous five days is obtained by the Community Research Clinic (WL/PD) using venipuncture and collected into heparinized vacuotainer tubes. To every 100 ml of pooled blood is added 25 ml of dextran solution (6% dextran -70 in 0.9% sodium chloride containing 3% dextrose) and this is mixed gently in a plastic cylinder. The mixture is left to stand at room temperature for at least 90 minutes. The upper layer which is rich in leukocytes and platelets is then carefully decanted into 50 ml plastic tubes and centrifuged at about 100×g for eight minutes in an IEC centrifuge and rotor number 269 (about 600 rpm). The supernatant fluid is discarded and the pellet is resuspended in 10 ml of 0.87% ammonium chloride for exactly two minutes. This procedure is to lyse completely contaminating red blood cells. Leukocytes are then separated by centrifugation for ten minutes. The pellet is washed three times by suspension in 20 ml PBS (sodium chloride, 7.1 g; Na2 HPO4, 1.15 g; KH2 PO4, 0.2 g, and KCl, 0.2 g/L) and centrifuged as before. The final pellet is suspended in PBS containing 0.87 mM CaCl2. Viability of the cells is then checked using trypan blue exclusion method and is found to be over 90%.
Leukocyte cells in suspension (0.98 ml) are incubated with or without test compounds for five minutes at 37° C. in a shaking water bath. At this time a 17 μl mixture is prepared per 1 ml of cell suspension: 100 mM arachidonic acid, 1 μl, 0.05 μCi ^14 C-arachidonic acid in 5 .rho.l; 1 mM calcium ionophore A23187, 10 μl (1). This mixture is added and the incubation continued for five minutes. The reaction is stopped by adding four volumes of absolute ethanol and the mixture is kept in ice for 30 minutes. The floculated precipitate is separated by centrifugation at about 37,000×g for 20 minutes (Beckman Instruments rotor number 40). The alcohol extract is taken to dryness under a stream of nitrogen and the residue is dissolved in 100-200 μl absolute ethanol. At the time any turbidity is removed by centrifugation. An aliquot (25-50 μl) is applied onto 20×20 cm silica gel TLC plate and developed using the following solvent system: diethyl ether, petroleum ether (2040° C.), acetic acid (50:50: 1 v/v). Zones of 1 cm apart are scraped from the TLC plate and transferred to mini-vials. Methanol (0.5 ml) is added to dissolve the radioactivity adsorbed to the silica gel and scintillation fluid (H.P., Beckman), 5 ml is then added and vials are counted in a liquid scintillation counter. A sample of ^3 H-5-HETE is applied and used for the identification of the formed 5-HETE.
Total radioactivity in the test as well as the control samples are normalized and the amount of 5-HETE present is calculated accordingly.
IC50 values are defined as the concentrations of test agents which caused a 50% inhibition of the formation of 5-HETE as compared to control and are determined by inspection of the concentration-response curves.
The formation of 5-HETE in human leukocytes is considered a measure of 5-lipoxygenase activity. The protocol is described in the following.
Fresh heparinized or EDTA treated human blood is mixed with 6% dextran-3% dextrose in isotonic saline in the ratio 0.25 ml dextran solution per 1.0 ml blood. […]

5LOA, % Inhibition (2.00 E -5 M) | 5LOA, % Inhibition (5.00 E -6 M) | Structure (SMILES)
+2.2% | +1.4% | O=C(Nc1ccc(CCc2ccc(Cl)c(Cl)c2)cc1)C(=O)c1sc2ccccc2c1O [Example 136, Benzo[b]thiophene-2-acetamide, N-[4-[2-(3,4-dichlorophenyl)ethyl]phenyl]-3-hydroxy-α-oxo]
13.8% | 5.5% | COc1c(C(=O)Nc2ccc(CCc3ccc(Cl)c(Cl)c3)cc2)sc2ccccc12 [Example 147, Benzo[b]thiophene-2-carboxamide, N-[4-[2-(3,4-dichlorophenyl)ethyl]phenyl]-3-methoxy]
